{"source": "patent US9161533B2", "about": "“Plant pathogen resistance” (priority 2007, dated 2015)", "format_in_all_cases": "in vivo, Arabidopsis", "key": {"[1]": {"system": "salicylic acid and camalexin levels", "experiment": "Endogenous salicylic acid and camalexin levels after azelaic acid spray", "details": "1 mM spray, no infection, vs mock", "method": "(§1) (A) Time course of free and total salicylic acid levels in leaves of Col after spray treatments with 5 mM MES (black bars) and 1 mM azelaic acid in 5 mM MES (white bars). (B) Camalexin levels in leaves of Col after azelaic acid treatment by spraying. Each experiment in (A) and (B) was performed with three different samples and the experiments were repeated three times. (C) Expression of an LTP gene (At2g38530) was elevated after azelaic acid treatment performed as in (A), however expression of PR1 and many other defense-related genes was unaffected. RT-PCR (23 cycles) was used to assess gene expression, with EF1a serving as a loading control.\nSince resistance to P. syringae requires activation of SA-dependent defenses accompanied by elevated endogenous SA levels, it was investigated whether azelaic acid directly induces SA accumulation. […] Additionally, the levels of the phytoalexin Camalexin, a defense metabolite, were similar in azelaic acid-treated and mock-treated plants (FIG. 5B). […] To investigate whether azelaic acid might affect additional defense markers, expression of defense-related genes was monitored using a mini array. […] RT-PCR confirmed that At2g38530 was induced by azelaic acid. However, PR1, a SA signaling marker, was not induced by azelaic acid. […]"}, "defense-related genes": {"system": "defense-related genes", "experiment": "Defense-related gene expression after azelaic acid treatment (mini array, RT-PCR)", "method": "as §1\nSince resistance to P. syringae requires activation of SA-dependent defenses accompanied by elevated endogenous SA levels, it was investigated whether azelaic acid directly induces SA accumulation. […] Additionally, the levels of the phytoalexin Camalexin, a defense metabolite, were similar in azelaic acid-treated and mock-treated plants (FIG. 5B). […] To investigate whether azelaic acid might affect additional defense markers, expression of defense-related genes was monitored using a mini array. […] RT-PCR confirmed that At2g38530 was induced by azelaic acid. However, PR1, a SA signaling marker, was not induced by azelaic acid. Thus, azelaic acid appears not to induce large changes in known signaling pathways activated by P. syrinagae, but does induce at least one defense-related gene."}, "virulent PmaDG3": {"system": "virulent PmaDG3", "experiment": "Azelaic acid-induced resistance against virulent PmaDG3 infection", "method": "(§2) (A) Local and systemic resistance response by azelaic acid treatment against virulent PmaDG3 infections. Local or systemic leaves of 21˜23-day-old plants were treated with 5 mM MES (pH 5.6) (black bars) or 1 mM azelaic acid in 5 mM MES (pH 5.6, white bars) 2 days prior to challenge with the virulent PmaDG3 strain (OD600=0.0001). MES and azelaic acid were introduced into leaves by syringe-infiltration. […] (B) Growth of avirulent strains PmaDG6 (PmaDG3 carrying avrRpt2) and PmaDG34 (PmaDG3 carrying avrRpm1) in leaves of Col pretreated with 5 mM MES (black bars) or 1 mM azelaic acid in 5 mM MES (pH 5.6, white bars). (C) Twenty three-day-old plants were pretreated with 1, 10, 100, and 1000 μM azelaic acid in 5 mM MES or 5 mM MES for 2 days and then subjected to infection with virulent PmaDG3 at OD600=0.0001. […] (D) Plants were treated with 5 mM MES or 1 mM azelaic acid for the indicated times prior to inoculation with virulent PmaDG3. Inoculations with PmaDG3 were performed between noon and 1 pm. Azelaic acid (Aza) in 5 mM MES was applied to plants using a hand-sprayer. The growth of bacteria was measured on day 3 after inoculation. […] (E) Plants were treated and infected as in (D), except that infections were performed between […]. (*p<0.04). These experiments were repeated two to four times to confirm reproducibility.\n1 mM azelaic acid in 5 mM MES was applied to wild-type Col, SAR-defective, and SA-deficient mutants (A) and jasmonic acid/ethylene-insensitive mutants (B) 2 days prior to challenge-inoculation of virulent PmaDG3 (OD600=0.0001). […] The experiments were repeated a minimum of three times. The number of asterisks indicates samples that were different from one another at given levels of statistical significance (*p<0.05, **p<0.01).\n(§3) Biological activity of azelaic acid in inducing disease resistance. 1 mM azelaic acid was infiltrated into leaves 3 and 4 of 3-week old plants. Two days later, plants were inoculated with virulent PmaDG3 onto leaves 3 and 4 or in the upper leaves, which were not pre-treated with azelaic acid (systemic leaves). Azelaic acid (1 mM) dissolved in 5 mM MES (pH 5.6) was not toxic to plant cell. […] Mock-treated and azelaic acid-treated plants were also infiltrated with avirulent derivatives of P. syringae pv. maculicola carrying avrRpt2 (PmaDG6) or avrRpm1 (PmaDG34).\nPmaDG3 growth was measured after spray treatment of plants with various concentrations of azelaic acid. […] It was also tested whether azelaic acid required a certain induction period for the induced resistance response. […] However, when plants were grown in the dark for 12 hours after treatment, azelaic acid was ineffective at conferring disease resistance (FIG. 3E). […] Thus, azelaic acid induces a light-dependent disease resistance response against infection with P. syringae that is also concentration- and time-dependent.\nTo further characterize how plants regulate azelaic acid-induced resistance, 1 mM azelaic acid was sprayed onto wild type and several mutant plants 2 days before infection with virulent PmaDG3 and bacterial growth was measured. Unlike wild-type plants, the SA pathway mutants tested were susceptible to virulent PmaDG3 infection regardless of treatment with azelaic acid (FIG. 4A). […] Pathogen resistance was also dependent on […], which is important for SA-induced disease resistance and SAR maintenance in Arabidopsis. The growth of bacteria was also monitored in leaves of JA- and ethylene-insensitive mutants, jar1 and etr1, following treatment with 1 mM azelaic acid."}, "PR1 expression": {"system": "PR1 expression", "experiment": "Priming of PR1 expression after virulent PmaDG3 infection", "details": "1 mM spray 2 days before PmaDG3 (OD600=0.01); vs mock", "method": "(§4) Five mM MES or 1 mM azelaic acid in 5 mM MES were applied to leaves of wild-type Col Arabidopsis 2 days prior to inoculation of 10 mM MgSO4 (M), virulent PmaDG3 (V) and avirulent PmaDG6 expressing AvrRpt2 (Av). Leaves were collected at different times after inoculation and endogenous free and total SA level was measured. (B) Relative PR1 expression in leaves of mock-treated plants and azelaic acid-treated plants after virulent PmaDG3 infection. The expression of PR1 is plotted on a log scale. The number of asterisks indicates samples that were different from one another at given levels of statistical significance (*p<0.075, **p<0.05, ***p<0.01).\nSince SA signaling mutants were compromised in responding to azelaic acid, it was investigated whether azelaic acid might prime SA synthesis or SA-dependent defense responses in plants. To test this, plants were sprayed with 1 mM azelaic acid (or 5 mM MES) and after two days infected with virulent PmaDG3 and avirulent PmaDG6 (carrying avrRpt2) (OD600=0.01). […] The priming effect by azelaic acid was also investigated by analyzing PR1 expression, a molecular marker for SA signaling (FIG. 6B). Mock- and azelaic acid-treated plants were infected with virulent PmaDG3 (OD600=0.01) 2 days after spray treatments. PR1 expression was increased in both azelaic acid treated and untreated plants after infection with the virulent strain. […]"}, "[2]": {"system": "PmaDG6 (PmaDG3 carrying avrRpt2)", "experiment": "Growth of avirulent PmaDG6 in azelaic acid-pretreated leaves", "details": "1 mM pretreatment", "method": "as §2\nBiological activity of azelaic acid in inducing disease resistance. […]"}, "plant cell": {"system": "plant cell", "experiment": "Toxicity of azelaic acid to plant cell", "details": "1 mM in 5 mM MES (pH 5.6)", "method": "as §3"}, "[3]": {"system": "SA-dependent defense signaling", "experiment": "Priming of SA accumulation after Pseudomonas syringae infection", "method": "as §4\nSince SA signaling mutants were compromised in responding to azelaic acid, it was investigated whether azelaic acid might prime SA synthesis or SA-dependent defense responses in plants. To test this, plants were sprayed with 1 mM azelaic acid (or 5 mM MES) and after two days infected with virulent PmaDG3 and avirulent PmaDG6 (carrying avrRpt2) (OD600=0.01). […] The priming effect by azelaic acid was also investigated by analyzing PR1 expression, a molecular marker for SA signaling (FIG. 6B). Mock- and azelaic acid-treated plants were infected with virulent PmaDG3 (OD600=0.01) 2 days after spray treatments. PR1 expression was increased in both azelaic acid treated and untreated plants after infection with the virulent strain. However, the expression was higher in leaves pretreated with azelaic acid after pathogen infection, compared with expression in mock-treated plants following pathogen infection (note the log scale in FIG. 6B)."}}, "note": "“Also recorded” adds a separate entry of the source.", "data": [{"smiles": "O=C(O)CCCCCCCC(=O)O", "note": "[azelaic acid]", "values": [{"measurement": "Camalexin levels", "setting": "[1]", "result": "does not affect; also recorded: similar"}, {"measurement": "free and total SA level", "setting": "[1]", "result": "does not affect; also recorded: no significant difference"}, {"measurement": "At2g38530 expression by RT-PCR", "setting": "defense-related genes; RT-PCR", "result": "elevated; also recorded: induced"}, {"measurement": "PR1 expression", "setting": "defense-related genes; azelaic acid alone, no infection", "result": "unaffected; also recorded: not induced"}, {"measurement": "induction of LTP gene At2g38530", "setting": "defense-related genes; mini array", "result": 3, "unit": "fold"}, {"measurement": "expression of most defense-related genes", "setting": "defense-related genes; mini array, vs mock", "result": "unaffected; also recorded: no difference in expression"}, {"measurement": "resistance, pretreatment 12 hours prior to pathogen challenge", "setting": "virulent PmaDG3; 1 mM hand sprayer, light", "result": "low level of resistance"}, {"measurement": "resistance, pretreatment 6 hours prior to infection", "setting": "virulent PmaDG3; 1 mM hand sprayer, plants grown in the light", "result": "still susceptible"}, {"measurement": "disease symptoms", "setting": "virulent PmaDG3; 1 mM infiltrated 2 days before PmaDG3 challenge", "result": "significant reduction in the disease symptoms; also recorded: very little disease symptom development"}, {"measurement": "growth of PmaDG3", "setting": "virulent PmaDG3; 1 mM infiltrated 2 days before challenge, local and systemic leaves", "result": "reduction in pathogen growth; also recorded: significantly reduced"}, {"measurement": "protection, inoculation 48 h after spraying", "setting": "virulent PmaDG3; 1 mM spray", "result": "Significant protection"}, {"measurement": "disease resistance, plants in the dark for 12 hours after treatment", "setting": "virulent PmaDG3; 1 mM spray, dark", "result": "ineffective"}, {"measurement": "resistance to PmaDG3 in SAR-defective / SA pathway mutants", "setting": "virulent PmaDG3; 1 mM sprayed 2 days before infection", "result": "did not induce plant resistance; also recorded: susceptible"}, {"measurement": "resistance in jar1 and etr1 mutants", "setting": "virulent PmaDG3; 1 mM, JA- and ethylene-insensitive mutants", "result": "did not affect; also recorded: effective in restricting bacterial growth"}, {"measurement": "bacterial growth", "setting": "virulent PmaDG3; 1 or 10 μM vs 5 mM MES", "result": "no difference in bacterial growth"}, {"measurement": "suppression of bacteria growth", "setting": "virulent PmaDG3; 100 and 1000 μM pretreatment", "result": 10, "unit": "fold"}, {"measurement": "resistance to PmaDG3 / growth of bacteria", "setting": "virulent PmaDG3; 100 and 1000 μM pretreatment for 2 days", "result": "significant reduction of the growth of bacteria; also recorded: resistant to PmaDG3"}, {"measurement": "PR1 expression after pathogen infection", "setting": "PR1 expression", "result": "higher"}, {"measurement": "growth of PmaDG6", "setting": "[2]", "result": "reduction in the growth"}, {"measurement": "toxicity to plant cell", "setting": "plant cell", "result": "not toxic"}, {"measurement": "levels of free SA", "setting": "[3]; 1 mM spray 2 days before, 6 and 18 hrs after virulent PmaDG3 infection, vs mock, p<0.05", "result": "significantly higher"}, {"measurement": "total SA accumulation", "setting": "[3]; 18 hrs after inoculation with both PmaDG3 and PmaDG6, vs mock, p<0.01", "result": "higher level"}, {"measurement": "levels of free SA", "setting": "[3]; after infection with PmaDG6 (carrying avrRpt2)", "result": "not statistically significant"}, {"measurement": "Endogenous free and total SA levels during Pseudomonas syringae infections", "setting": "[3]; vs mock-treated plants", "result": "significantly higher"}]}]}
